Results reported in patent US8841321B2, “Quinoline derivatives as antibacterial agents” (Janssen Pharmaceutica NV, priority 2005, dated 2014).
In brackets after ≈: the same amount, converted by molar mass.

How the values were obtained:
[1] = test system: SPN 6305 (Streptococcus pneumoniae (ATCC6305)); assay: Microtitre plate assay, IC90 determination; format: cell-based; details: Streptococcus pneumoniae (ATCC6305)
Summary of the method: (§1)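 Growth-inhibition endpoint: resazurin added 3 h after inoculation, plates incubated overnight, fluorescence at 530/590 nm after 24 h at 37 °C. Inocula of roughly 10–60 CFU per well in Mueller-Hinton medium; compounds titrated five-fold. IC90 reported as μg/ml.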

[2] = test system: STA 29213 (Staphylococcus aureus (ATCC29213)); assay: Microtitre plate assay, IC90 determination; format: cell-based; details: for IC90 (μg/ml) STA 29213: Staphylococcus aureus (ATCC29213); for IC90: Staphylococcus aureus, ATCC29213, Staphylococcus aureus (ATCC29213), read-out: IC90 (μg/ml) STA 29213
Summary of the method: as §1

[3] = test system: STA 25923 (Staphylococcus aureus (ATCC25923)); assay: Microtitre plate assay, IC90 determination; format: cell-based; details: for IC90: Staphylococcus aureus, ATCC25923, Staphylococcus aureus (ATCC25923), read-out: IC90 (μg/ml) STA 25923; for IC90 (μg/ml) STA 25923: Staphylococcus aureus (ATCC25923)
[4] = test system: BSU 43639 (Bacillus subtilis (ATCC43639)); assay: Microtitre plate assay, IC90 determination; format: cell-based; details: for IC90: Bacillus subtilis, ATCC43639, Bacillus subtilis (ATCC43639), read-out: IC90 (μg/ml) BSU 43639; for IC90 (μg/ml) BSU 43639: Bacillus subtilis (ATCC43639)
[5] = test system: PAE 27853 (Pseudomonas aeruginosa (ATCC27853)); assay: Microtitre plate assay, IC90 determination; format: cell-based; details: for IC90 (μg/ml) PAE 27853: Pseudomonas aeruginosa (ATCC27853)
[6] = test system: SPY 8668 (Streptococcus pyogens (ATCC8668)); assay: Microtitre plate assay, IC90 determination; format: cell-based; details: Streptococcus pyogens (ATCC8668)
[7] = test system: STA RMETH (methicilline resistant Staphylococcus aureus (MRSA), a clinical isolate from the University of Antwerp); assay: Microtitre plate assay, IC90 determination; format: cell-based
[8] = test system: EFA 29212 (Enterococcus faecalis (ATCC29212)); assay: Microtitre plate assay, IC90 determination; format: cell-based; details: for IC90 (μg/ml) EFA 29212: Enterococcus faecalis (ATCC29212)
[9] = test system: LMO 49594 (Listeria monocytogenes (ATCC49594)); assay: Microtitre plate assay, IC90 determination; format: cell-based; details: for IC90: Listeria monocytogenes, ATCC49594, Listeria monocytogenes (ATCC49594), read-out: IC90 (μg/ml) LMO 49594; for IC90 (μg/ml) LMO 49594: Listeria monocytogenes (ATCC49594)

| SMILES | melting point [°C] | IC90 (μg/ml) SPN 6305 [1] [µg/mL] | IC90 (μg/ml) STA 29213 [2] [µg/mL] | IC90 [3] [µg/mL] | IC90 [4] [µg/mL] | IC90 ([5]; Pseudomonas aeruginosa, ATCC27853, Pseudomonas aeruginosa (ATCC27853), read-out: IC90 (μg/ml) PAE 27853) [µg/mL] | IC90 (μg/ml) SPY 8668 [6] [µg/mL] | IC90 ([7]; Staphylococcus aureus, MRSA, read-out: IC90 (μg/ml) STA RMETH) [µg/mL] | IC90 ([8]; Enterococcus faecalis, ATCC29212, Enterococcus faecalis (ATCC29212), read-out: IC90 (μg/ml) EFA 29212) [µg/mL] | IC90 [9] [µg/mL] | IC90 [2] [µg/mL] | IC90 (μg/ml) STA 25923 [3] [µg/mL] | IC90 (μg/ml) BSU 43639 [4] [µg/mL] | IC90 (μg/ml) PAE 27853 [5] [µg/mL] | IC90 (μg/ml) STA RMETH [7] [µg/mL] | IC90 (μg/ml) EFA 29212 [8] [µg/mL] | IC90 (μg/ml) LMO 49594 [9] [µg/mL] |
| --- | --- | --- | --- | --- | --- | --- | --- | --- | --- | --- | --- | --- | --- | --- | --- | --- | --- |
| COc1nc2ccc(Br)cc2cc1C(c1ccccc1)C(O)(CCCCN(C)C)c1ccc2c(c1)OCO2 (stereo not drawn) [Compound 9] | 98 | 11.5 (≈ 19.9 µM) | 9.1 (≈ 15.8 µM) | – | – | – | – | – | – | – | – | – | – | – | – | – | – |
| COc1nc2ccc(Br)cc2cc1C(c1ccccc1)C(O)(CCCCN(C)C)c1ccccc1 (stereo not drawn) [Compound 21] | – | 11.9 (≈ 22.3 µM) | 10.6 (≈ 19.9 µM) | – | – | – | 10.6 (≈ 19.9 µM) | – | – | – | – | 10.6 (≈ 19.9 µM) | 10.6 (≈ 19.9 µM) | 10.6 (≈ 19.9 µM) | 10.6 (≈ 19.9 µM) | 21.2 (≈ 39.7 µM) | 10.6 (≈ 19.9 µM) |
| COc1nc2ccc(Br)cc2cc1C(c1ccccc1)C(O)(CCCCN(C)C)c1ccc2ccccc2c1 (stereo not drawn) [Compound 23] | – | 11.6 (≈ 19.9 µM) | 1.9 (≈ 3.26 µM) | – | – | – | 46.4 (≈ 79.5 µM) | – | – | – | – | 58.4 (≈ 100 µM) | 58.4 (≈ 100 µM) | 1.9 (≈ 3.26 µM) | 58.4 (≈ 100 µM) | 4.1 (≈ 7.03 µM) | 36.8 (≈ 63.1 µM) |
| COc1nc2ccc(Br)cc2cc1C(c1ccccc1)C(O)(CCCCN(C)C)c1ccc2ccccc2c1 (stereo not drawn) [Compound 25] | – | 2.3 (≈ 3.94 µM) | 1.9 (≈ 3.26 µM) | – | – | – | 9.3 (≈ 15.9 µM) | – | – | – | – | 58.4 (≈ 100 µM) | 58.4 (≈ 100 µM) | 1.9 (≈ 3.26 µM) | 58.4 (≈ 100 µM) | 4.1 (≈ 7.03 µM) | 9.3 (≈ 15.9 µM) |
| COc1ccc2cc(C(O)(CCCCN(C)C)C(c3ccccc3)c3cc4c(Br)cccc4nc3OC)ccc2c1 (stereo not drawn) [Compound 27] | – | 61.4 (≈ 100 µM) | – | 61.4 (≈ 100 µM) | 48.7 (≈ 79.4 µM) | – | 48.7 (≈ 79.4 µM) | – | – | 61.4 (≈ 100 µM) | 1.9 (≈ 3.1 µM) | – | – | 9.7 (≈ 15.8 µM) | 61.4 (≈ 100 µM) | 61.4 (≈ 100 µM) | – |
| COc1nc2cccc(Br)c2cc1C(c1ccccc1)C(O)(CCCCN(C)C)c1ccc2ccccc2c1 (stereo not drawn) [Compound 28] | 170 | 58.4 (≈ 100 µM) | 1.9 (≈ 3.26 µM) | – | – | – | – | – | – | – | – | – | – | – | 9.3 (≈ 15.9 µM) | – | – |

Now from value to molecule:

| melting point [°C] | IC90 (μg/ml) SPN 6305 [1] [µg/mL] | IC90 (μg/ml) STA 29213 [2] [µg/mL] | IC90 [3] [µg/mL] | IC90 [4] [µg/mL] | IC90 ([5]; Pseudomonas aeruginosa, ATCC27853, Pseudomonas aeruginosa (ATCC27853), read-out: IC90 (μg/ml) PAE 27853) [µg/mL] | IC90 (μg/ml) SPY 8668 [6] [µg/mL] | IC90 ([7]; Staphylococcus aureus, MRSA, read-out: IC90 (μg/ml) STA RMETH) [µg/mL] | IC90 ([8]; Enterococcus faecalis, ATCC29212, Enterococcus faecalis (ATCC29212), read-out: IC90 (μg/ml) EFA 29212) [µg/mL] | IC90 [9] [µg/mL] | IC90 [2] [µg/mL] | IC90 (μg/ml) STA 25923 [3] [µg/mL] | IC90 (μg/ml) BSU 43639 [4] [µg/mL] | IC90 (μg/ml) PAE 27853 [5] [µg/mL] | IC90 (μg/ml) STA RMETH [7] [µg/mL] | IC90 (μg/ml) EFA 29212 [8] [µg/mL] | IC90 (μg/ml) LMO 49594 [9] [µg/mL] | SMILES |
| --- | --- | --- | --- | --- | --- | --- | --- | --- | --- | --- | --- | --- | --- | --- | --- | --- | --- |
| 166 | 25.4 (≈ 44.6 µM) | – | – | – | – | – | – | – | – | – | – | – | – | – | – | – | COc1nc2ccc(Br)cc2cc1C(c1ccccc1)C(O)(CCCCN(C)C)c1cc(F)ccc1F (stereo not drawn) [Compound 13] |
| 150 | 53.5 (≈ 100 µM) | 53.5 (≈ 100 µM) | – | – | – | – | – | – | – | – | – | – | – | – | – | – | COc1nc2ccc(Br)cc2cc1C(c1ccccc1)C(O)(CCCCN(C)C)c1cccnc1 (stereo not drawn) [Compound 15] |
| – | 2.1 (≈ 3.94 µM) | – | 10.6 (≈ 19.9 µM) | 10.6 (≈ 19.9 µM) | 10.6 (≈ 19.9 µM) | 4.2 (≈ 7.87 µM) | 10.6 (≈ 19.9 µM) | 10.6 (≈ 19.9 µM) | 13.4 (≈ 25.1 µM) | 10.6 (≈ 19.9 µM) | – | – | – | – | – | – | COc1nc2ccc(Br)cc2cc1C(c1ccccc1)C(O)(CCCCN(C)C)c1ccccc1 (stereo not drawn) [Compound 20] |
| – | 1.9 (≈ 3.26 µM) | 1.9 (≈ 3.26 µM) | – | – | – | 1.9 (≈ 3.26 µM) | – | – | – | – | 0.5 (≈ 0.857 µM) | 1.9 (≈ 3.26 µM) | 1.9 (≈ 3.26 µM) | 1.9 (≈ 3.26 µM) | 1.9 (≈ 3.26 µM) | 1.9 (≈ 3.26 µM) | COc1nc2ccc(Br)cc2cc1C(c1ccccc1)C(O)(CCCCN(C)C)c1ccc2ccccc2c1 (stereo not drawn) [Compound 24] |
| 160 | 21.8 (≈ 35.5 µM) | 9.7 (≈ 15.8 µM) | – | – | – | – | – | – | – | – | – | – | – | – | – | – | COc1ccc2cc(C(O)(CCCCN(C)C)C(c3ccccc3)c3cc4ccc(Br)cc4nc3OC)ccc2c1 (stereo not drawn) [Compound 30] |
